Converted amounts (≈) assume the structure as drawn. Read-outs that look alike come from different tables or passages of the source. Marks after values point to notes of the source that are not given here.
Assays:
in vitro = type: cell-based, human; settings: human; MRC-5 (lung fibroblast); 24 h; one biological replicate (n = 3); read-out: CC50 for human cells
Description: (§1) as a range from biological replicates. Inhibition curves were generated using Prism (GraphPad).
(§2) The IC50 values reported in Table 2 are the average of the two biological replicates ± standard […]
(§3) Cytotoxicity Assay Procedure
(§4) Human lung fibroblast cells, MRC -5 (CCL-171), were cultured at 37℃ with 5% CO2 and were plated at 5000 cells/well in a 96 -well plate. Compounds 1, 2, and 15-22 were initially prepared at concentrations of 5.12 mg/mL in a vehicle of 50% DMSO. Dilutions of the compounds (4 – 512 μg/mL) were then prepared in growth medium containing Dulbecco’s modified Eagle’s medium (DMEM) with high glucose, L -glutamine, and sodium pyruvate supplemented with 10% fetal bovine serum (FBS), 1% non -essential amino acids, and 0.1% gentamicin sulfate, and 25mM HEPES. The vehicle (50% DMSO) was also prepared via the sa me dilution series to serve as a control. Growth media was removed from the cells and replaced with the same volume of each compound dilution. Cells were incubated for 24 h , after which CellTiter 96® AQueous One Solution Reagent was added to each well as recommended by the manufacturer’s protocol (Promega CellTiter 96 AQueous One Solution Cell Proliferation Assay) and further incubated for 4 h. After incubation, absorbance was measured at 490 nm on an Infinite M plex multimode microplate reader with i -control Tecan software. Viability was calculated by subtracting media only absorbance values and normalizing to the vehicle control at each concentration. The presented data is one assay performed in triplicate that is representative of multiple trials. Data for the 256 and 512 μg/mL concentrations were removed from analysis due to vehicle toxicity […]
(§5) CC50 concentrations were determined via the ED50 Plus v1.0 software (https://archive.org/details/ed50v10_zip).
Figure S41. The effect of compounds on cell viability. The lines represent non -linear regression curves, and error bars represent means ± […]
SD (n=3). […]

S. aureus 8810 = assay: Broth microdilution antibacterial assay; type: cell-based, Staphylococcus aureus; settings: for Selectivity index (CC50/IC50): MRC-5 CC50 / S. aureus IC50; for IC50 / MIC: Staphylococcus aureus, 8810; for IC50: average of two biological replicates ± S.D., read-out: IC50
Description: (§6) Antibacterial Assay Procedure
(§7) Broth Microdilution Assays
(§8) Media and solutions were autoclaved or sterile filtered prior to use and manipulations were carried out in a laminar flow hood. Antibacterial testing was performed in polypropylene 96 -well flat bottom plates. The minimal inhibitory concentration of blasticidin S ( 1) hydrochloride, P10 (2), and derivatives 15–22 were assessed against Staphylococcus aureus ΔNorA, S. aureus 8810, methicillin-resistant S. aureus (MRSA) ATCC 43300, Enterococcus faecalis ATCC 29212, vancomycin-resistant Enterococcus, Klebsiella pneumoniae ATCC 29665, Pseudomonas aeruginosa, and Acinetobacter baumannii ATCC 17978 using serial dilutions. Doxycycline (Gold Bio) as a positive control and the vehicle as a negative control. Stock solutions of each compound were prepared at 5.12 mg/mL in 50% DMSO/water and serially diluted in 50% DMSO/water to create master plates. From the master plates, 10 μL of each dilution was applied to test plates using a Bravo automated liquid transfer system (Agilent). Bacteria previously grown overnight (37 °C, 120 – 200 RPM), in LB broth were diluted to an OD600 of 0.0 5 in cation-adjusted Mueller-Hinton broth, grown to an OD600 of ~0.5, and diluted to an OD600 of 0.004 in cation-adjusted Mueller-Hinton broth. These diluted cultures were applied to the test plates (190 μL per test well) resulting in final concentrations of the test compounds of 256–2 μg/mL. Growth controls (wells with inoculated media but no vehicle or test compounds) were included to assess any potential toxicity from the vehicle. The plates were incubated at 37 °C for 16–18 h, except for VRE and E. faecalis, which were incubated at 37 °C for 24 h. Inhibition was determined by measuring the optical density at 600 nm (OD600) with a Cytation 3 plate reader (BioTek). The optical density measurements were normalized to the positive and negative controls and the vehicle and growth controls were compared and found to be indistinguishable, indicating no toxicity from the vehicle used. The MIC was the lowest concentration that inhibited >90% of growth. Two biological replicates were performed in duplicate. MIC values are reported […]
as §1, §2, §3, §4, §5

[1] = system: methicillin-resistant S. aureus (MRSA) ATCC 43300; assay: Broth microdilution antibacterial assay; type: cell-based, Staphylococcus aureus; settings: for Selectivity index (CC50/IC50): MRC-5 CC50 / MRSA IC50; for IC50 / MIC: Staphylococcus aureus; for IC50: average of two biological replicates ± S.D., read-out: IC50
Description: as §6, §7, §8, §1, §2, §3, §4, §5

[2] = system: vancomycin-resistant Enterococcus (VRE); assay: Broth microdilution antibacterial assay; type: cell-based; settings: for MIC / IC50: Enterococcus; for IC50: average of two biological replicates ± S.D., read-out: IC50; for Selectivity index (CC50/IC50): MRC-5 CC50 / VRE IC50
Description: as §6, §7, §8, §1, §2, §3, §4, §5

[3] = system: Acinetobacter baumannii ATCC 17978; assay: Broth microdilution antibacterial assay; type: cell-based; settings: for IC50 / MIC: Acinetobacter baumannii, ATCC17978, A. baumannii; for IC50: average of two biological replicates ± S.D., read-out: IC50; for MIC: lowest concentration inhibiting >90% of growth, range from biological replicates, read-out: MIC; for Selectivity index (CC50/IC50): MRC-5 CC50 / A. baumannii IC50
Description: as §6, §7, §8, §1, §2, §3, §4, §5

Pseudomonas aeruginosa = assay: Broth microdilution antibacterial assay; type: cell-based; settings: for Selectivity index (CC50/IC50): MRC-5 CC50 / P. aeruginosa IC50; for MIC / IC50: Pseudomonas aeruginosa; for IC50: average of two biological replicates ± S.D., read-out: IC50
Description: as §6, §7, §8, §1, §2, §3, §4, §5

[4] = system: Enterococcus faecalis ATCC 29212; assay: Broth microdilution antibacterial assay; type: cell-based; settings: for MIC / IC50: Enterococcus faecalis, ATCC29212; for IC50: average of two biological replicates ± S.D. (18: one biological replicate), read-out: IC50; for Selectivity index (CC50/IC50): MRC-5 CC50 / E. faecalis IC50
Description: as §6, §7, §8, §1, §2, §3, §4, §5

[5] = system: Klebsiella pneumoniae ATCC 29665; assay: Broth microdilution antibacterial assay; type: cell-based; settings: for IC50 / MIC: Klebsiella pneumoniae, ATCC29665, K. pneumoniae; for IC50: average of two biological replicates ± S.D., read-out: IC50; for MIC: lowest concentration inhibiting >90% of growth, range from biological replicates, read-out: MIC; for Selectivity index (CC50/IC50): MRC-5 CC50 / K. pneumoniae IC50
Description: as §6, §7, §8, §1, §2, §3, §4, §5

[6] = system: Staphylococcus aureus ΔNorA; assay: Broth microdilution antibacterial assay; type: cell-based; settings: for Selectivity index (CC50/IC50): MRC-5 CC50 / S. aureus ΔNorA IC50; for IC50 / MIC: Staphylococcus aureus
Description: as §6, §7, §8, §1, §2, §3, §4, §5

[7] = S. aureus, lowest concentration inhibiting >90% of growth, range from biological replicates, read-out: MIC
[8] = average MIC, Table S3, read-out: Average Activity against S. aureus
[9] = MRSA, lowest concentration inhibiting >90% of growth, range from biological replicates, read-out: MIC
[10] = average MIC, Table S3, read-out: Average Activity against MRSA
[11] = VRE, average MIC, Table S3, read-out: Average Activity against VRE
[12] = E. faecalis, 24 h, lowest concentration inhibiting >90% of growth, range from biological replicates, read-out: MIC
[13] = average MIC, Table S3, read-out: Average Activity against E. faecalis

For CN(C)C(=O)[C@H]1O[C@@H](n2ccc(N)nc2=O)C=C[C@@H]1NC(=O)C[C@@H](N)CCN(C)C(=N)N [Compound 18], which CC50 at 24 h (in vitro) is on record?
Its CC50 at 24 h is 63.9 µg/mL (≈ 142 µM).

What about the “Selectivity index (CC50/IC50)” value (S. aureus 8810) of the same compound?
The value was 9.1.

And the IC50 (S. aureus 8810; S. aureus)?
Its IC50 is 7 ± 1.5 µg/mL (≈ 15.6 µM).

And the MIC (S. aureus 8810; [7])?
Its MIC is 64 µg/mL (≈ 142 µM).

And the MIC (S. aureus 8810; [8])?
The MIC was 64 µg/mL (≈ 142 µM).

What about the “Selectivity index (CC50/IC50)” value [1] of the same compound?
Its value is 5.0.

And the IC50 ([1]; MRSA)?
Its IC50 is 12.8 ± 1.9 µg/mL (≈ 28.5 µM).

What about the MIC [1, 9] of the same compound?
Its MIC is 32 µg/mL (≈ 71.2 µM).

And the MIC [1, 10]?
Its MIC is 32 µg/mL (≈ 71.2 µM).

And the MIC ([2]; VRE, 24 h)?
The MIC was 64 to 128 µg/mL (≈ 142 to 285 µM).

What about the MIC [2, 11] of the same compound?
The MIC was 96 µg/mL (≈ 214 µM).

What about the IC50 ([2]; VRE) of the same compound?
The IC50 was 27.7 ± 11 µg/mL (≈ 61.6 µM).

And the “Selectivity index (CC50/IC50)” value [2]?
The value was 2.3.

What about the IC50 [3] of the same compound?
The IC50 was 46.4 ± 7 µg/mL (≈ 103 µM).

And the MIC [3]?
The MIC was 256 µg/mL (≈ 570 µM).

And the “Selectivity index (CC50/IC50)” value [3]?
Its value is 1.4.

And the “Selectivity index (CC50/IC50)” value (Pseudomonas aeruginosa)?
The value was 3.4.

What about the MIC (Pseudomonas aeruginosa) of the same compound?
The MIC was 64 to 128 µg/mL (≈ 142 to 285 µM).

And the IC50 (Pseudomonas aeruginosa; P. aeruginosa)?
Its IC50 is 18.8 ± 2.6 µg/mL (≈ 41.8 µM).

What about the MIC [4, 12] of the same compound?
The MIC was 16 to 32 µg/mL (≈ 35.6 to 71.2 µM).

What about the IC50 ([4]; E. faecalis) of the same compound?
The IC50 was 17 µg/mL (≈ 37.8 µM).

What about the MIC [4, 13] of the same compound?
Its MIC is 32 µg/mL (≈ 71.2 µM).

And the “Selectivity index (CC50/IC50)” value [4]?
The value was 3.7 ^b.

And the IC50 [5]?
The IC50 was 60.1 ± 4.7 µg/mL (≈ 134 µM).

And the MIC [5]?
Its MIC is 256 µg/mL (≈ 570 µM).

And the “Selectivity index (CC50/IC50)” value [5]?
The value was 1.1.

And the “Selectivity index (CC50/IC50)” value [6]?
Its value is 3.5.

And the IC50 [6]?
The IC50 was 18.3 ± 1.4 µg/mL (≈ 40.7 µM).

What about the MIC [6] of the same compound?
Its MIC is 128 µg/mL (≈ 285 µM).

Which results are given for CN(CC[C@H](N)CC(=O)N[C@H]1C=C[C@H](n2ccc(N)nc2=O)O[C@@H]1C(=O)NCCc1ccccc1)C(=N)N [Compound 22]?
CC50 at 24 h (in vitro): 58.4 µg/mL (≈ 111 µM); Selectivity index (CC50/IC50) (S. aureus 8810): 15; better activity than the phenethyl ester of the previous study (S. aureus 8810; S. aureus, ester data ref 8): 4- to 8 fold; IC50 (S. aureus 8810; S. aureus): 3.8 ± 0.2 µg/mL (≈ 7.23 µM); MIC (S. aureus 8810; [7]): 16 µg/mL (≈ 30.4 µM); MIC (S. aureus 8810; [8]): 12 µg/mL (≈ 22.8 µM); Selectivity index (CC50/IC50) [1]: 15; increase in potency compared to 1 ([1]; MRSA, MIC): 16 to 32 fold; better activity than the phenethyl ester of the previous study ([1]; MRSA, ester data ref 8): 4- to 8 fold; IC50 ([1]; MRSA): 4 ± 0.3 µg/mL (≈ 7.61 µM); MIC [1, 9]: 8 to 16 µg/mL (≈ 15.2 to 30.4 µM); MIC [1, 10]: 12 µg/mL (≈ 22.8 µM); MIC [2, 11]: 32 µg/mL (≈ 60.9 µM); MIC ([2]; VRE, 24 h, lowest concentration inhibiting >90% of growth, range from biological replicates, read-out: MIC): 32 µg/mL (≈ 60.9 µM); IC50 ([2]; VRE): 11.1 ± 0.8 µg/mL (≈ 21.1 µM); Selectivity index (CC50/IC50) [2]: 5.2; increase in potency compared to 1 ([2]; VRE, MIC): 8 fold; IC50 [3]: 183 ± 19 µg/mL (≈ 348 µM); MIC [3]: > 256 µg/mL; Selectivity index (CC50/IC50) [3]: 0.3; Selectivity index (CC50/IC50) (Pseudomonas aeruginosa): 3.5; IC50 (Pseudomonas aeruginosa; P. aeruginosa): 16.5 ± 2.1 µg/mL (≈ 31.4 µM); MIC (Pseudomonas aeruginosa; P. aeruginosa, lowest concentration inhibiting >90% of growth, range from biological replicates, read-out: MIC): 64 µg/mL (≈ 122 µM); MIC [4, 12]: 8 µg/mL (≈ 15.2 µM); IC50 ([4]; E. faecalis): 6.1 ± 2.6 µg/mL (≈ 11.6 µM); MIC [4, 13]: 8 µg/mL (≈ 15.2 µM); Selectivity index (CC50/IC50) [4]: 9.6; IC50 [5]: 36.9 ± 4.7 µg/mL (≈ 70.2 µM); MIC [5]: 256 µg/mL (≈ 487 µM); Selectivity index (CC50/IC50) [5]: 1.6; Selectivity index (CC50/IC50) [6]: 3.0; IC50 [6]: 19.3 ± 0.2 µg/mL (≈ 36.7 µM); MIC [6]: 128 µg/mL (≈ 244 µM)

From article PMC10945559, “Forgotten Natural Products: Semisynthetic Development of Blasticidin S As an Antibiotic Lead” (ACS Medicinal Chemistry Letters, 2024)
